Test results as given in ChEMBL document CHEMBL1201862, “PubChem BioAssay data set” (2004).
Activity calls are given as the source filed them.

Key:
P388/ADR = assay: cells; assay type: functional; conditions: Mus musculus
SN12K1 = assay: cells; assay type: functional; conditions: Homo sapiens
P388 = assay: cells; assay type: functional; conditions: Mus musculus
Melanocortin receptor 4 = Melanocortin receptor 4 (Homo sapiens, UniProt P32245); assay: inhibitors of MC4R cAMP signaling – cell-based, TR-FRET, biased antagonists, dose response (AID 602298); assay type: functional;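 note: antagonist potency against agonist-stimulated cAMP production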
Chain of Melanocortin receptor 4 (P32245 whole entry): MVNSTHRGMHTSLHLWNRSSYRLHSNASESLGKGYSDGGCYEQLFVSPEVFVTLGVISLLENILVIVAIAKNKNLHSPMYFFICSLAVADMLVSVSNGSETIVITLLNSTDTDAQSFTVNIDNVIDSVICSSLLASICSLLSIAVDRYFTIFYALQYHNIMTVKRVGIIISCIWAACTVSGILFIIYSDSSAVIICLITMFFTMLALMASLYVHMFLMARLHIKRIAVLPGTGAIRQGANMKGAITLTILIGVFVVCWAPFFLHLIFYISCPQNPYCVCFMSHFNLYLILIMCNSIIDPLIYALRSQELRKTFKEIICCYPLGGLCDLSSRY

[1] = cAMP pathway inhibition in counterscreen cell line – TR-FRET cAMP detection, counter-screen for MC4R biased antagonist project, dose response (AID 602305); assay type: functional, cell-based;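 note: U2OS cells stimulated with forskolin near its EC80 as the cAMP inducer; potency is for inhibition of forskolin-stimulated cAMP signaling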
HEK293 = assay: EBV LMP1 TES2 canonical NF-kB signalling blockers – cell-based, HEK293, luciferase, cherry-pick, dose response (AID 588343); assay type: functional; conditions: Homo sapiens
[2] = NIH-3T3 fibroblast cytotoxicity, dose response, cytotoxicity control, cell-based, fluorescence, Alamar Blue, secondary assay (AID 2327); assay type: functional;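 note: NIH-3T3 mouse fibroblasts cultured with fluconazole at 8 µg/mL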
[3] = system: Streptococcus sp. 'group A'; assay: Streptococcus pyogenes SK(-)GAS viability under kanamycin – luminescence, BacTiterGlo, confirmation, counter-screen for streptokinase expression inhibitor project, dose response (AID 1900); assay type: functional, organism-based
[4] = fluconazole-exposed Candida albicans growth modulators – fluorescence, retest, confirmation (AID 2467); assay type: functional, cell-based
Streptococcus = assay: GAS UMAA2166 growth inhibition – luminescence, BacTiterGlo, counter-screen for streptokinase expression inhibitor project, dose response (AID 1915); assay type: functional, organism-based;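 note: potency for reduction of bacterial viability or growth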
[5] = THP-1 cell cytotoxicity, dose response, cytotoxicity control for non-replicating M. tuberculosis project (AID 489025); assay type: functional
[6] = Vero E6 cell cytotoxicity, dose response, cytotoxicity control for non-replicating M. tuberculosis project, secondary assay (AID 492998); assay type: functional, VeroE6; conditions: Vero C1008
cells = assay type: functional
Beta-galactosidase = Beta-galactosidase (Escherichia coli, UniProt Q8VNN2); assay: PubChem AID 485352; assay type: functional
Chain of Beta-galactosidase (Q8VNN2 whole entry): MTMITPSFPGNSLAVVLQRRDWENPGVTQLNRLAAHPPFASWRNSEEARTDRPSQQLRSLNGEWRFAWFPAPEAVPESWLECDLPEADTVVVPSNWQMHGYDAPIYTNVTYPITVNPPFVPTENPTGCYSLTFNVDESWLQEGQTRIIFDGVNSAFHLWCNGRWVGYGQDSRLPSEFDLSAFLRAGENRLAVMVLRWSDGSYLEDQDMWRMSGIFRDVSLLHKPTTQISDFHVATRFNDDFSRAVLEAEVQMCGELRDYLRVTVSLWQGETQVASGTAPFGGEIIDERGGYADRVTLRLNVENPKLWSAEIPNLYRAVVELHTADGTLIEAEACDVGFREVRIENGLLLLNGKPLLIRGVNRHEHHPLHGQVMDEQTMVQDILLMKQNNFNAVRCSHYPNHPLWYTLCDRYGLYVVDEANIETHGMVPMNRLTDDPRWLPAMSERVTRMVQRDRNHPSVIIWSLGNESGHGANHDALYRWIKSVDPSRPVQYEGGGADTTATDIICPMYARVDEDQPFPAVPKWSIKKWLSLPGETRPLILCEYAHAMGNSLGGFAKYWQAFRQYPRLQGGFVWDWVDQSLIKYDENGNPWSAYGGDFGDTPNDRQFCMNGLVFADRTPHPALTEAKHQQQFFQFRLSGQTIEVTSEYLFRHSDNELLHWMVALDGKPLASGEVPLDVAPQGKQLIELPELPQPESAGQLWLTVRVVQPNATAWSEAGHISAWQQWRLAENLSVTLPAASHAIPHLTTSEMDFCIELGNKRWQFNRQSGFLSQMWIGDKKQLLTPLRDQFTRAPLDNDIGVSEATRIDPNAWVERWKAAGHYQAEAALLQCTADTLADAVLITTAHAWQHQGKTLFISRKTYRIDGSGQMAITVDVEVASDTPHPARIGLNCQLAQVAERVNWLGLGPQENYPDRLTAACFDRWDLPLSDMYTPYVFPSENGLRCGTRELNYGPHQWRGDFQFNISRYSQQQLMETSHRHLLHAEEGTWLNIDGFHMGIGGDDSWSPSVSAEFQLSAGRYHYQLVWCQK

[7] = target: T1, Type-1 angiotensin II receptor (Homo sapiens, UniProt P30556); assay: antagonism of angiotensin II type 1 receptor – cell-based, uHTS hits, selectivity assay for APJ receptor antagonist project, dose response (AID 463214); assay type: functional;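 note: antagonist potency against angiotensin II stimulated AT1 response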
T1 sequence (P30556 whole entry): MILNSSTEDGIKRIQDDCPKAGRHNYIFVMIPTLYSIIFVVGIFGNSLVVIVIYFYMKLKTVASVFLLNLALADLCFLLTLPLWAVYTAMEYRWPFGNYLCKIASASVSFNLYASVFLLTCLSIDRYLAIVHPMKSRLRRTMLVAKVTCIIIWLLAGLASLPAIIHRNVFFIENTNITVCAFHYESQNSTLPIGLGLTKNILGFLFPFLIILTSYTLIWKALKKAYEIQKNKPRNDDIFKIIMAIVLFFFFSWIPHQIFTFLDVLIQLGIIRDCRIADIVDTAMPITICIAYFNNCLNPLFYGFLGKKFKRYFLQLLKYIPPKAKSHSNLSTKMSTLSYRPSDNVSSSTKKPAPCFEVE

[8] = target: Luciferin 4-monooxygenase (Photinus pyralis, UniProt P08659); assay: inhibition of purified Photinus pyralis luciferase – biochemical, luminescence, dose response (AID 1891)
Chain of Luciferin 4-monooxygenase (P08659 whole entry): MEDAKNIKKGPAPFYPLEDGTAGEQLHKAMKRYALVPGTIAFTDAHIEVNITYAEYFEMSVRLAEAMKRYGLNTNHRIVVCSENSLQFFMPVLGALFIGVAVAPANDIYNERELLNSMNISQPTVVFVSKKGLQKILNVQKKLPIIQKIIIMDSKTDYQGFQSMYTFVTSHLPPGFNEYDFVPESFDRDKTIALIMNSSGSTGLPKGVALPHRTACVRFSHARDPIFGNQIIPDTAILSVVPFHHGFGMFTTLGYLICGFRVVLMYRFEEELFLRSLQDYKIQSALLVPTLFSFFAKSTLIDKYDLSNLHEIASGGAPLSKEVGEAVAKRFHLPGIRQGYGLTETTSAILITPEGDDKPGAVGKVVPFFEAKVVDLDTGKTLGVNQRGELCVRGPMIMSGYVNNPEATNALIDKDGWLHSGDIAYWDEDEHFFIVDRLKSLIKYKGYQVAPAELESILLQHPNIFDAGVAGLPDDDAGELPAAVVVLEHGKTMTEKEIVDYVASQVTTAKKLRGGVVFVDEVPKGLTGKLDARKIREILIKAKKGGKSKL

[9] = Luminescence Cell-Based Dose Confirmation HTS to Identify Inhibitors of Platelet Dense Granule Release. [Related pubchem assays: 1663 (Primary HTS), 1678 (Summary of Project)]; assay type: functional

SMILES: NC1(C(=O)O)CCCC1 [CYCLOLEUCINE]
- GI50 (P388/ADR): > 625 µM (inactive)
- GI50 (SN12K1): > 625 µM (inactive)
- GI50 (P388): > 625 µM (inactive)

SMILES: CC(C)N(c1ccccc1)c1ccc(NC(=O)COC(=O)CCN2C(=O)c3cccc([N+](=O)[O-])c3C2=O)cc1
- IC50 (Melanocortin receptor 4): > 64.6 µM (inactive)
- IC50 [1]: > 64.6 µM (inactive)

SMILES: CC[C@](C)(O)C(=O)O[C@H]1C(=O)O[C@@H]2C[C@H]3C(C)=C[C@H](O)[C@@H](O)[C@]3(C)[C@H]3[C@@]4(O)OC[C@]32[C@@H]1[C@@H](C)[C@H]4O
- GI50 (P388/ADR): 88.5 µM (inactive)
- GI50 (SN12K1): 7.19 µM (inactive)
- GI50 (P388): 45.3 µM (inactive)

SMILES: CCOC(=O)CSc1nnc(-c2ccc(NS(=O)(=O)c3ccc(C)cc3)cc2)o1
- IC50 (Melanocortin receptor 4): > 64.6 µM (inactive)
- IC50 [1]: > 64.6 µM (inactive)

SMILES: Cn1cccc1/C=C1\CC(C(C)(C)C)C/C(=C\c2cccn2C)C1=O (stereo not drawn)
- AC50 (HEK293): 160 µM (active)

SMILES: COc1cccc(C(=O)Nc2nnc(-c3ccc(F)cc3)o2)c1
- EC50 [2]: > 150 µM (inactive)
- EC50 [3]: 2.33 µM (active)
- EC50 [4]: 1.96 µM (active)
- EC50 (Streptococcus): 5.74 µM (active)
- CC50 [5]: 31.9 µM (active)
- CC50 [6]: 15.8 µM (active)
- IC50 (cells): 1.03 µM (active)

SMILES: Cc1ccc(C(=O)COC(=O)CN2C(=O)C3CC=CCC3C2=O)cc1[N+](=O)[O-] (stereo not drawn)
- EC50 (Beta-galactosidase): > 40 µM (inactive)
- IC50 [7]: 33.6 µM (not active)

SMILES: CCOc1ccc(N/C=C/C(=O)c2ccccc2)cc1
- EC50 [8]: 0.453 µM (active)
- EC50 [9]: 2 µM (active)
- AC50 (HEK293): 3.62 µM (active)
